EP0193283A1, “Thiazoloquinoline derivatives, process for their preparation and compositions containing them” (BEECHAM GROUP PLC, priority 1985, dated 1986)
Converted amounts (≈) assume the structure as drawn.

How the values were obtained:
Type in all cases: cell-based
[1] = test system: M. gallisepticum S6; test: In vitro antimycoplasmal MIC; conditions: Mycoplasmoides gallisepticum, Friis' agarose medium or SP4 medium with 0.65% agarose
[2] = test system: S.aureus M12; test: Antibacterial MIC on agar; conditions: Staphylococcus aureus
[3] = test system: M. hyorhinis ATCC 23234; test: In vitro antimycoplasmal MIC; conditions: Mesomycoplasma hyorhinis, ATCC23234, Friis' agarose medium or SP4 medium with 0.65% agarose
[4] = test system: M. dispar NCTC 10125; test: In vitro antimycoplasmal MIC; conditions: Friis' agarose medium or SP4 medium with 0.65% agarose
[5] = test system: M. bovis NCTC 10131; test: microbe, parasite or virus in culture; conditions: NCTC10131
[6] = test system: M. meleagridis 17529; test: In vitro antimycoplasmal MIC; conditions: Friis' agarose medium or SP4 medium with 0.65% agarose
[7] = test system: M. hyosynoviae ATCC 25591; test: In vitro antimycoplasmal MIC; conditions: Friis' agarose medium or SP4 medium with 0.65% agarose
[8] = test system: S.dysgalactiae FRO 7A; test: Antibacterial MIC on agar; conditions: Streptococcus dysgalactiae, FRO7A
[9] = test system: M. hyopneumoniae x 5 strains; test: In vitro antimycoplasmal MIC; conditions: Mesomycoplasma hyopneumoniae, X5STRAINS, Friis' agarose medium or SP4 medium with 0.65% agarose
[10] = test system: M. iowae B11; test: In vitro antimycoplasmal MIC; conditions: Friis' agarose medium or SP4 medium with 0.65% agarose
[11] = test system: S.agalactiae SPAI; test: Antibacterial MIC on agar; conditions: Streptococcus agalactiae
[12] = test system: M. pneumoniae x vs 9 strains; test: In vitro antimycoplasmal MIC; conditions: Mycoplasmoides pneumoniae, XVS9STRAINS, Friis' agarose medium or SP4 medium with 0.65% agarose
[13] = test system: M. synoviae ATCC 25204; test: In vitro antimycoplasmal MIC; conditions: Mycoplasmopsis synoviae, ATCC25204, Friis' agarose medium or SP4 medium with 0.65% agarose

`CCNCC1CCN(c2cc3c(cc2F)c(=O)c(C(=O)O)c2scc(C)n23)C1` (stereo not shown) [Example 1, 8-[3-[(Ethylamino)methl]-1-pyrrolidinyl]-7-fluoro-1-methyl-5-oxo-5H-thiazolo[3,2-a]-quinoline-4-carboxylic acid] gave an MIC [1] of 0.025 ng/mL (≈ 0.062 nM), an MIC [2] of 120 ng/mL (≈ 297 nM) and an MIC [3] of 0.05 ng/mL (≈ 0.124 nM). The MIC [4] was 0.025 ng/mL (≈ 0.062 nM), the MIC [5] was 0.1 ng/mL (≈ 0.248 nM) and the MIC [6] was 0.025 ng/mL (≈ 0.062 nM). For the same molecule, the MIC [7] was 0.05 ng/mL (≈ 0.124 nM), the MIC [8] was 500 ng/mL (≈ 1240 nM) and the MIC [9] was 0.001 ng/mL (≈ 0.00248 nM). It also gave an MIC [10] of 0.025 ng/mL (≈ 0.062 nM), an MIC [11] of 1000 ng/mL (≈ 2480 nM) and an MIC [12] of 0.13 ng/mL (≈ 0.322 nM). For the same molecule, the MIC [13] was 0.1 ng/mL (≈ 0.248 nM).
